Data set [1] in a line: Solubility in DMSO/water. It is filed as physicochemical. To be noted: DMSO in water.
In data set [2] the test system is SNL rats. Put plainly: Antiallodynic effect, spinal nerve ligation (SNL) neuropathic pain model, von Frey. In kind it is in vivo, male Sprague-Dawley rats. To be noted: intravenous 12 mg/kg, von Frey filaments, five rats. From the text:
The experimental protocol (CNUHIACUC-20039) was approved by the Institutional Animal Care and Use Committee of Chonnam National University Hospital. Animal models of neuropathic pain (NP) were constructed by spinal nerve ligation (SNL) or chemotherapeutics injection (chemotherapy-induced peripheral neuropathy, CIPN) in male Sprague-Dawley rats (weight, 150–180 g). Briefly, under sevoflurane anesthesia, the left L5 and L6 spinal nerves near the vertebral column were separated and tightly ligated using 6-0 silk. Cisplatin was administered intraperitoneally at 2 mg/kg once daily for 4 days. The paw withdrawal threshold (PWT) to mechanical stimuli was measured using calibrated 0.41–15.2 g von Frey filaments (Stoelting, Wood Dale, IL, USA), as described previously. […] The antiallodynic effects of the intravenous vehicle and LDD4692 (3mg/rat) were evaluated and expressed as the percentage of the maximal possible effect (% MPE). % MPE = [(post drug PWT − post injured baseline PWT)/(cutoff PWT − post injured baseline PWT)] × 100
For the analysis of antagonistic activities, all data were calculated by Origin Pro 9.1 software provided by Originlab and the fitting of graphs was proceeded by the growth/sigmoidal and hill1 process within no weights for data selections. For the analysis of the behavioral assessments of pain models, all data are expressed as mean ± SEM. […]

A short description of data set [3]: Metabolic stability in microsomal fraction, mouse. In kind it is in vitro ADME.
For data set [4], the target named is T1, hP2X3R (Homo sapiens, UniProt P56373).
T1 construct: expressed in transfected cells
T1 sequence (P56373 1-397): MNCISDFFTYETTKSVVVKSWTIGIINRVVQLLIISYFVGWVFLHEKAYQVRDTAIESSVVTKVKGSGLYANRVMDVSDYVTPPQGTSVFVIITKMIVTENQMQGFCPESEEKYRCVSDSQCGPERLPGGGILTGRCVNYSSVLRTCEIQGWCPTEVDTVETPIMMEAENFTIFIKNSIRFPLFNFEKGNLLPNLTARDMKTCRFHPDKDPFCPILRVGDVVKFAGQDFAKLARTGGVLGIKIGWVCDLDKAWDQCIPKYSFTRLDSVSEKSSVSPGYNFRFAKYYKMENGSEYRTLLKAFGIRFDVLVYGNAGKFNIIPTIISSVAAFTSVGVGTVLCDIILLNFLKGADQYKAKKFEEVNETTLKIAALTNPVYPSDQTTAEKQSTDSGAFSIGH
Put plainly: Calcium influx (Fluo-4) evoked by α,β-meATP in HEK293 cells stably expressing hP2X3R. In kind it is cell-based. To be noted: antagonistic activity; HEK293 cells expressing hP2X3R; agonist at EC70. The protocol: For the evaluation of P2XR activities, a cell-based assay system was employed to measure the level of fluorescence emission, based on Fluo-4 dye, during Ca^2+ influx evoked by αβmeATP in HEK293 cells stably expressing hP2X2/3R and hP2X3R. The library containing 8364 representative compounds for the screening of antagonistic activity was provided by the Korea Chemical Bank. The antagonistic activities were evaluated in the presence of P2X3R agonist of the concentration for EC70 value (200–250 nM for hP2X3R and 1–4 μM for hP2X2/3R highly expressed cell lines), and AF353 was used as the positive control antagonist for comparison. For the first round of screening, a single concentration (25 μM) of each library compound was tested to identify initial hit compounds, which were subsequently validated using both concentrations of 25 and 10 μM. Using a cut-off threshold of higher than 50% antagonistic activity and after confirming dose-dependency, 12 main hit compounds were selected.
3.4. Cell-Based Assay: Measurement of Calcium Influx by Fluorescence-Based Fluo-4 Dye Uptake in HEK293 Cells Expressing hP2X2/3 and hP2X3 Receptors
Human P2X3-expressing HEK293 cells were grown in DMEM supplemented with 10% fetal bovine serum and 1% antibiotic–antimycotic as a monolayer culture at 37 °C in a humidified atmosphere of 5% CO2. The 96-well black plates used in the experiments were prepared by coating them with 1× poly-D-lysine (A3890401, Thermo-Fisher Scientific Korea, Seoul, South Korea). An aliquot of 40 μL 1× poly-D-lysine was used to treat each of the wells in a flat orientation. After leaving the plates for at least 4 h to absorb the poly-D-lysine, the plates were allowed to dry for at least 6 h. The DMEM used in the culture of HEK293 cells was removed from the dish, followed by application of 3 mL 1× PBS for washing. Removal of 1× PBS was followed by application of 1 mL trypsin/EDTA, and the cells were collected by centrifugation at 1200 rpm for 2 min. The supernatant was removed, and 1 mL fresh DMEM added. The cells were resuspended in media and plates prepared with 4.8 × 10^4 cells/well in 56 μL/well. After 18 h of cell culture in the 96-well black plate, 56 μL of Fluo-4 dye (Fluo-4 Direct^TM Calcium Assay Kit, F10471, Invitrogen, Thermo-Fisher Scientific Korea, Seoul, South Korea) was added to each well, prepared according to the manufacturer’s protocol, and incubated for 50 min~1 h under culturing conditions. Then, 12.4 μL of the appropriate compound solution was added to each well, and the positive control was AF353 (A1612, Sigma Aldrich Korea, Seoul, South Korea) and the negative control was 5% DMSO. Plates were incubated at room temperature and sealed to avoid interference from light for 50 min~1 h. Flexstation 3 and its software provided by Molecular Devices was used for the measurement of fluorescence in real time of treatments using prepared α,β-meATP (M6517, Sigma Aldrich) solution to evoke calcium influx and increased cell membrane potential.
For the analysis of antagonistic activities, all data were calculated by Origin Pro 9.1 software provided by Originlab and the fitting of graphs was proceeded by the growth/sigmoidal and hill1 process within no weights for data selections. For the analysis of the behavioral assessments of pain models, all data are expressed as mean ± SEM. The dose–response data are presented as percentages of the maximum possible effect. Statistical significance was analyzed by independent t-test. The criterion for statistical significance was p < 0.05. The statistical analysis was performed using SPSS 25.0 software (IBM Corp., Armonk, NY, USA).

Data set [5] can be described thus: BBB-PAMPA permeability. In kind it is in vitro ADME. To be noted: UV/vis spectrophotometry.

Read-outs that look alike come from different tables or passages of the source. Bounds are passed on as bounds.

In general, share remaining refers to what is left of the initial amount, in per cent. One may read the IC50 as the concentration needed to halve the response being measured. Take `O=C1C(NC2CCN(C(=O)c3ccc(F)c(F)c3)CC2)=C(Cl)C(=O)c2[nH]c(C(F)(F)F)nc21` [14h, 6-Chloro-5-((1-(3,4-difluorobenzoyl)piperidin-4-yl)amino)-2-(trifluoromethyl)-1H-benzo[d]imidazole-4,7-dione]: the Solubility result in data set [1] is on record as “soluble in 30% DMSO in water”. Also, in data set [2], the “Maximal possible effect (% MPE), antiallodynic” value was found to be 54%. The fraction remaining at 0.5 h in data set [3] (microsomal fraction, species not given, lowest of human, rat, mouse is mouse, read-out: Metabolic stability, % remaining after 30 min incubation (summary)) is above 92%; in data set [3] (mouse, mouse microsomal fraction, read-out: Metabolic Stability (Microsomal Fr.) % remaining after 30 min) it was 92.8%. Further, in data set [4], the IC50 came out at 0.375 ± 0.033 µM. The “BBB-PAMPA logPe” value in data set [5] was below −6.000 logPe.

These data come from paper PMC8877008, “Synthesis and Structure–Activity Relationship Studies of Benzimidazole-4,7-dione-Based P2X3 Receptor Antagonists as Novel Anti-Nociceptive Agents” (Molecules, 2022).
